Measurements taken from patent publication US20250281474A1, “PHARMACEUTICAL COMPOSITION FOR TREATING COGNITIVE DECLINE OR FOR TREATING OVERWEIGHTNESS OR OBESITY” (University of the Ryukyus, priority 2021, published 2025).

Experiments:
ob/ob mice = assay: Immunohistochemical analysis (MAP2, GluA1, GluA2, DCX), ob/ob mice; format: in vivo, mouse; settings: ob/ob mice with PER
From the text: Mouse brains were perfusion-fixed with 4% paraformaldehyde, embedded in paraffin, and cut into 4 micrometer thick sections to be used for immunohistochemical analysis of monoclonal antibodies against DCX (E-6 monoclonal, 1:50, Santa Cruz Biotechnology Inc, Dallas, USA), MAP2ab (AP-20 monoclonal, 1:100, SIGMA-ALDRICH, St. Louis, USA), GluA1 (AB1540 polyclonal, 1:100, EMD Millipore Corp., Burlington, USA), and GluA2 (AB 1768-1 polyclonal, 1:5, EMD Millipore Corp., Burlington, USA).
The immunostained region in each of the expression regions of MAP2, GluA1, and GluA2 was acquired using a ZVI format AxioVision (Carl Zeiss, Germany) microscope (objective lens 20×). Generation of data image processing with image segmentation was performed using machine learning with ZEN Intelliesis software. 1000 or more cells were examined in each group. One-way variance analysis was used for testing variance among the three groups excluding data of 3SD or higher. Then, the following number of samples was used.
Similar to the HFD mouse model, ob/ob mice had reduced dendritic arbors integrity as determined by MAP2 staining (FIG. 12). […] In addition, the maturation of the protrusions of DCX-positive cells progressed by treatment with PER for 12 weeks (FIG. 14).

[1] = test system: AMPAR subunits GluA1-4 mRNA; assay: qRT-PCR of AMPAR/NMDAR subunits in hippocampal regions, Ca2+ permeability index; format: in vivo, mouse
Method: After preparing and collecting hippocampal slices, CA1, CA2, CA3, DG, and EC regions were separated from hippocampal slices using a dissection knife from […] background mice and ob/ob mice, respectively. The CA1, CA2, CA3, DG, and EC regions of mice were separated and immediately lysed in disposable homogenization tube BioMasher2 (trademark) (Nippi, Tokyo, Japan) using 0.5 mL of TRIzol RNA isolation reagent (Thermo Fisher Scientific, Wilmington, DE). Total RNA was individually extracted from each region according to the remaining protocol of the TRIzol RNA isolation reagent provided by the manufacturer (Thermo Fisher Scientific, Wilmington, DE). 1 μg of total RNA was reverse transcribed using PrimeScript RT Reagent Kit (Takara, Shiga, Japan). An aliquot of the obtained cDNA was diluted 1:10 and added to a master mix of TB Green Premix ExTaq (Takara, Shiga, Japan), and real-time PCR was performed using a 7500 Fast Real-Time PCR system (Applied Biosystems, Foster City, CA, USA) according to the manufacturer's instructions. The conditions for real-time PCR were as follows. 40 cycles of 95° C. for 30 seconds, then 95° C. for 5 seconds and 60° C. for 34 seconds. The fluorescence intensity was measured for each annealing step and the threshold cycle time was determined using 7500 software. In addition, relative expression levels of β-actin were normalized to respective controls (vehicle group). The relative expression level of the target gene in each sample was determined using a standard curve and further normalized to the expression level of R-actin of the same sample. The sequences of primers and probes for these genes are shown in Supplemental Table 2. The “ratio of GluA2 mRNA amount/(GluA1+GluA3+GluA4 mRNA amount” was used as a Ca^2+ permeability index.
GluA2 is edited at the Q/R site within the reentry M2 membrane loop region by adenosine deaminase (ADAR2), which acts on RNA type 2 involved in editing double-stranded RNA from adenosine (A) to inosine (I) (review, refer to 15, 16 and 17). Attempts were made to determine real-time quantitative reverse transcription polymerase chain reaction (qRT-PCR), subunit composition of AMPAR and NMDAR. Total RNA in hippocampal subregions (CA1, CA3, DG, EC) was separated, and quantitative analysis of mRNA of GluA1, GluA2, GluA3, and GluA4 for AMPAR, and GluN1, GluN2A, GluN2B, and GluN2C for NMDAR was performed by qRT-PCR. […] Based on the mRNA amount of each subunit, the ratio of GluA2 to other GluA subunits (FIG. 2B) was determined. The ratio was defined as a Ca^2+ permeability index.

AMPAR (CP-AMPAR) = assay: Ca2+ imaging of hippocampal brain slices, AMPA+CTZ application (CP-AMPA reaction), HFD-fed mice; format: cell-based; settings: slices of HFD-fed mice given PER 5 mg/kg/day orally, 100 μM AMPA + 100 μM CTZ, N=5
Method: First, the intracellular calcium concentration ([Ca^2+]i) was directly measured in an acute brain slice of the hippocampus having a perihippocampal region using a mouse obesity model associated with HFD feeding (composition of diet (7) shown in Table 1) for 12 weeks after weaning to track calcium signaling (FIG. 1A: supplementary data moving image 1) in the hippocampus. HFD-fed mice received […] containing 100 μM CTZ (cyclothiazide; […]) applied to EC (entorhinal cortex), CA1 (cornu ammonis 1), CA2, CA3, and DG (dentate gyrus). The F525 normalized before and after application was compared.

[2] = test system: calcium-permeable AMPA receptor; assay: Ca2+ imaging of hippocampal slices of Alzheimer's disease model mice (NL, NLGF); format: cell-based, mouse; settings: Alzheimer's disease model (NL and NLGF) mice fed CD

SMILES: N#Cc1ccccc1-c1cc(-c2ccccn2)cn(-c2ccccc2)c1=O [PER, 3-(2-cyanophenyl)-5-(2-pyridyl)-1-phenyl-1,2-dihydropyridine-2-one]
- GluA1 expression in CA1 (immunoreactive regions) (ob/ob mice): restored
- ratio of GluA2/GluA1 (immunoreactive regions) (ob/ob mice): restored
- Ca2+ permeability index CA1 ([1]; GluA2 mRNA/(GluA1+GluA3+GluA4 mRNA), HFD-fed mice with PER, CA1, N=5): 0.29 ± 0.11 (N = 5)
- Ca2+ permeability index CA3 ([1]; GluA2 mRNA/(GluA1+GluA3+GluA4 mRNA), HFD-fed mice with PER, CA3, N=5): 0.26 ± 0.10 (N = 5)
- Ca2+ permeability index DG ([1]; GluA2 mRNA/(GluA1+GluA3+GluA4 mRNA), HFD-fed mice with PER, DG, N=5): 0.22 ± 0.06 (N = 5)
- Ca2+ permeability index EC ([1]; GluA2 mRNA/(GluA1+GluA3+GluA4 mRNA), HFD-fed mice with PER, EC, N=5): 0.30 ± 0.05(N = 5)
- Ca2+ permeability index via CA1, CA3, DG, EC (reduced by HFD) ([1]; HFD-fed mice, PER administration, N=5): returned to CD-fed mouse levels
- GluA2 mRNA expression in CA1 (qRT-PCR) ([1]; mice fed HFD with PER, p<0.05): significant increase
- CP-AMPA reaction CA1 (maximum value of NF525) (AMPAR (CP-AMPAR); CA1): 1.00 ± 0.01 (N = 5)
- CP-AMPA reaction CA2 (maximum value of NF525) (AMPAR (CP-AMPAR); CA2): 1.00 ± 0.02 (N = 5)
- CP-AMPA reaction CA3 (maximum value of NF525) (AMPAR (CP-AMPAR); CA3): 1.00 ± 0.01 (N = 5)
- CP-AMPA reaction DG (maximum value of NF525) (AMPAR (CP-AMPAR); DG): 1.02 ± 0.01 (N = 5)
- CP-AMPA reaction EC (maximum value of NF525) (AMPAR (CP-AMPAR); EC): 1.05 ± 0.05 (N = 5)
- inhibition of NMDAR by the calcium-permeable AMPA receptor [2]: can be eliminated
